Experiments:
[1] = tested on: MERTK-expressing M1 macrophages; assay: Macrophage viability assay, M1; settings: 4 days of treatment in differentiating medium
Experimental: Macrophage Viability Assay
(§1) Peripheral blood mononuclear cells (PBMCs) were prepared from buffy coats of healthy donors by Histopaque-1077 (Sigma, 10771) density gradient centrifugation at 250×g at room temperature for 30 min. The intermediate layer containing PBMCs was collected and cells were washed with PBS/2 mM EDTA three times. Human monocytes were isolated from PBMCs by magnetic separation using human Classical Monocyte Isolation Kit (Miltenyi, 130-117-337) according to the manufacturer's instructions. Eighty thousand monocytes per well were cultured on 96-well plates in 150 μL PBMC medium (RPMI 1640 medium (Gibco, 11875093) containing 10% human AB serum, 10% FBS, L-glutamine, penicillin, and streptomycin) at 37° C. with 5% CO2. Monocytes were treated with GM-CSF (20 ng/mL; Biolegend, 766102) or M-CSF (50 ng/mL; Biolegend, 574804) for 8 days to differentiate to M1 or M2 macrophages, respectively. […] On day 4, 100 μL of CellTiter-Glo 2.0 Cell Viability Assay reagent (Promega, G9241) was added to each well, incubated for 10 mins and the luminescence signal was detected with a GloMax Discover Microplate Reader (Promega). The mean relative luminometer units (RLU) from duplicate wells were plotted with GraphPad Prism.

[2] = tested on: MERTK-expressing M2 macrophages; assay: Macrophage viability assay, M2; settings: 4 days of treatment in differentiating medium
Experimental: Macrophage Viability Assay
as §1

CCCCNc1ncc2c(-c3ccc(S(=O)(=O)N4CCOCC4)cc3)nn(C3CCC(O)CC3)c2n1 (centres unmarked) [UNC1062, reference compound]
viability of M1 macrophages (CellTiter-Glo 2.0) [1]: neither z10 nor z10-MMAE nor z10-SN-38 nor the MERTK inhibitor UNC1062 affect the viability | viability of M2 macrophages (CellTiter-Glo 2.0) [2]: neither z10 nor z10-MMAE nor z10-SN-38 nor the MERTK inhibitor UNC1062 affect the viability
